Here are results for 25 sequences from US9791444B2, “Method for differentially quantifying naturally processed HLA-restricted peptides for cancer, autoimmune and infectious diseases immunotherapy development” (IMMATICS BIOTECHNOLOGIES GMBH, priority 2010, dated 2017).

The test system of this experiment is CD8+ T cells from HLA-A*24 healthy donors. As to the kind of experiment: In vitro immunogenicity: in vitro priming of CD8+ T cells with pMHC/anti-CD28 coated beads (aAPC), A*2402 multimer staining. The note with it: HLA-A*2402 restricted, three stimulation cycles; for Positive wells/wells tested [%]: at least 24 wells evaluable for each peptide, positive well = at least 1% specific multimer+ among CD8+ and at least 10x median of negative controls; for Positive donors/donors tested [%]: at least two donors evaluable for each peptide. In kind it is cell-based, human. From the text: To get information regarding the immunogenicity of the TUMAPs of the present invention, we performed investigations using a well established in vitro stimulation platform already described by (Walter, S, Herrgen, L, Schoor, O, Jung, G, Wernet, D, Buhring, H J, Rammensee, H G, and Stevanovic, S; 2003, Cutting edge: predetermined avidity of human CD8 T cells expanded on calibrated MHC/anti-CD28-coated microspheres, J. Immunol., 171, 4974-4978).
In order to perform in vitro stimulations by artificial antigen presenting cells (aAPC) loaded with peptide-MHC complex (pMHC) and anti-CD28 antibody, we first isolated CD8 T cells from fresh HLA-A*24 leukapheresis products of healthy donors obtained from the Blood Bank Tuebingen.
CD8 T cells were either directly enriched from the leukapheresis product or PBMCs (peripheral blood mononuclear cells) were isolated first by using standard gradient separation medium (PAA, Cölbe, Germany). Isolated CD8 lymphocytes or PBMCs were incubated until use in T-cell medium (TCM) consisting of RPMI-Glutamax (Invitrogen, Karlsruhe, Germany) supplemented with 10% heat inactivated human AB serum (PAN-Biotech, Aidenbach, Germany), 100 U/ml Penicillin/100 μg/ml Streptomycin (Cambrex, Cologne, Germany), 1 mM sodium pyruvate (CC Pro, Oberdorla, Germany), 20 μg/ml Gentamycin (Cambrex). 2.5 ng/ml IL-7 (PromoCell, Heidelberg, Germany) and 10 U/ml IL-2 (Novartis Pharma, Nürnberg, Germany) were also added to the TCM at this step. Isolation of CD8+ lymphocytes was performed by positive selection using CD8 MicroBeads (Miltenyi Biotec, Bergisch-Gladbach, Germany).
Generation of pMHC/anti-CD28 coated beads, T-cell stimulations and readout was performed as described before (Walter et al. 4974-78) with minor modifications. Briefly, biotinylated peptide-loaded recombinant HLA-A*2402 molecules lacking the transmembrane domain and biotinylated at the carboxy terminus of the heavy chain were produced. The purified costimulatory mouse IgG2a anti human CD28 Ab 9.3 (Jung, Ledbetter, and Muller-Eberhard 4611-15) was chemically biotinylated using Sulfo-N-hydroxysuccinimidobiotin as recommended by the manufacturer (Perbio, Bonn, Germany).
800.000 beads/200 μl were coated in 96-well plates in the presence of 600 ng biotin anti-CD28 plus 200 ng relevant biotin-pMHC (high density beads). Stimulations were initiated in 96-well plates by co-incubating 1×10^6 CD8+ T cells with 2×10^5 washed coated beads in 200 μl TCM supplemented with 5 ng/ml IL-12 (PromoCell) for 3-4 days at 37° C. Half of the medium was then exchanged by fresh TCM supplemented with 80 U/ml IL-2 and incubating was continued for 3-4 days at 37° C. This stimulation cycle was performed for a total of three times. Finally, multimeric analyses were performed by staining the cells with Live/dead-Aqua dye (Invitrogen, Karlsruhe, Germany), CD8-FITC antibody clone SK1 (BD, Heidelberg, Germany) and PE- or APC-coupled A*2402 MHC multimers. For analysis, a BD LSRII SORP cytometer equipped with appropriate lasers and filters was used. Peptide specific cells were calculated as percentage of total CD8+ cells. Evaluation of multimeric analysis was done using the FlowJo software (Tree Star, Oreg., USA).

Take “AYAIIKEEL (listed as Homo sapiens) [ATAD2-001]”: the “Positive wells/wells tested [%]” value was determined as 4% and the “Positive donors/donors tested [%]” value came out at 50%.
The corresponding values for “AYLVYTDRL (listed as Homo sapiens) [PPAP2C-001]” are 54% and 100%.
Regarding “FYISPVNKL (listed as Homo sapiens) [AVL9-001]”, the “Positive wells/wells tested [%]” value is 50% and the “Positive donors/donors tested [%]” value stood at 100%.
The matching figures for “HYKPTPLYF (listed as Homo sapiens) [SMC4-001]”: 9% and 75%.
The matching figures for “IYNGKLFDLL (listed as Homo sapiens) [KIF2C-001]”: 2% and 13%.
For the sequence “KYNDTFWKEF (listed as Homo sapiens) [HSP90B1-001]”, the “Positive wells/wells tested [%]” value is 4% and the “Positive donors/donors tested [%]” value is given as 50%.
The matching figures for “LYQILQGIVF (listed as Homo sapiens) [CDC2-001, gastric cancer associated TUMAP encoded by CDK1]”: 28% and 88%.
With “NYEETFPHI (listed as Homo sapiens) [MUC6-001]”, the “Positive wells/wells tested [%]” value is given as 21% and the “Positive donors/donors tested [%]” value worked out at 50%.
The corresponding values for NYLLYVSNF [MMP11-001] are 11% and 33%.
The corresponding values for “NYLLYVSNF [MST1R-001] (listed as Homo sapiens)” are 14% and 50%.
In the case of “NYLPFIMEL (listed as Homo sapiens) [UCHL5-001]”, the “Positive wells/wells tested [%]” value worked out at 14% and the “Positive donors/donors tested [%]” value is 75%.
Consider “QYASRFVQL (listed as Homo sapiens) [PLK4-001]”, for which the “Positive wells/wells tested [%]” value was 5% and the “Positive donors/donors tested [%]” value came out at 60%.
As to “RFLSGIINF (listed as Homo sapiens) [NUF2-002]”, the “Positive wells/wells tested [%]” value worked out at 4% and the “Positive donors/donors tested [%]” value amounted to 50%.
On to “RYLWATVTI (listed as Homo sapiens) [ASPM-001]”, for which the “Positive wells/wells tested [%]” value came out at 3% and the “Positive donors/donors tested [%]” value is reported as 17%.
Regarding “SYIDVLPEF (listed as Homo sapiens) [MET-006]”, the “Positive wells/wells tested [%]” value came out at 22% and the “Positive donors/donors tested [%]” value came out at 63%.
Turning to “SYNPLWLRI (listed as Homo sapiens) [ASPM-002, gastric cancer associated TUMAP encoded by ASPM]”, the “Positive wells/wells tested [%]” value is 31% and the “Positive donors/donors tested [%]” value turned out to be 63%.
As for “TYGNLLDYL (listed as Homo sapiens) [ABL1-001]”, the “Positive wells/wells tested [%]” value is reported as 13% and the “Positive donors/donors tested [%]” value amounted to 50%.
In the case of “VFDTAIAHLF (listed as Homo sapiens) [SIAH2-001]”, the “Positive wells/wells tested [%]” value turned out to be 4% and the “Positive donors/donors tested [%]” value came out at 50%.
As to “VFIFKGNQF (listed as Homo sapiens) [MMP3-001]”, the “Positive wells/wells tested [%]” value turned out to be 1% and the “Positive donors/donors tested [%]” value is listed as 13%.
The matching figures for VWSDVTPLTF [PROM1-001]: 26% and 83%.
The matching figures for “VYGIRLEHF (listed as Homo sapiens) [NUF2-001]”: 25% and 100%.
Turning to “VYIEKNDKL (listed as Homo sapiens) [ERBB3-001]”, the “Positive wells/wells tested [%]” value amounted to 15% and the “Positive donors/donors tested [%]” value came out at 83%.
On to “VYKVVGNLL (listed as Homo sapiens) [IQGAP3-001]”, for which the “Positive wells/wells tested [%]” value was 24% and the “Positive donors/donors tested [%]” value is reported as 100%.
In the case of “VYTTSYQQI (listed as Homo sapiens) [NFYB-001]”, the “Positive wells/wells tested [%]” value is 7% and the “Positive donors/donors tested [%]” value was 50%.
In the case of “YYNAAGFNKL (listed as Homo sapiens) [UQCRB-001]”, the “Positive wells/wells tested [%]” value is listed as 38% and the “Positive donors/donors tested [%]” value is listed as 100%.
